Laboratory results from US20080058213A1, “Benzoxazole Compounds” (priority 2004, published 2008).

Tests used:
Type in all cases: in vivo
wheat [1] = test: Foliage treatment test for upland field (Test Example 3): phytotoxicity to wheat; details: foliage treatment at 1.0-2.0 leaf stage of southern crabgrass, examined after 3 weeks
Description: (§1) Evaluation of phytotoxicity is shown in the following six grades, as compared with the condition of untreated control: • 0: normal growth • 1: little damaged • 2: low damaged • 3: medium damaged • 4: serious damaged • 5: complete killed.
(§2) Compost mixed soil was filled in 1/3,000 are pots, seeded with southern crabgrass, common lambsquaters, slender amaranth, common purslane, velvetleaf, wheat, corn and soybean. The seeds were covered up with the soil and cultured in a glasshouse kept at 25° C. on the average.
(§3) After placing the test pots in a grasshouse kept at 25° C. on the average for 3 weeks, the herbicidal effect was examined.

soybean [2] = test: Soil treatment test for upland field (Test Example 2): phytotoxicity to soybean; details: soil treatment before germination, examined after 3 weeks
Description: as §1
(§4) Upland field soil was filled in 1/3,000 are pots, seeded with southern crabgrass (Digitaria ciliaris), common lambsquaters (Chenopodium album), slender amaranth (Amaranthus viridis), common purslane (Portulaca oleracea), velvetleaf (Abutilon theophrasti), wheat, corn and soybean. The seeds were covered up with the soil.
(§5) After placing the test pots in a glasshouse which was kept at an average temperature of 25° C. for 3 weeks, the herbicidal effect was examined.

velvetleaf = test: Foliage treatment test for upland field (Test Example 3): velvetleaf; details: foliage treatment at 1.0-2.0 leaf stage of southern crabgrass, examined after 3 weeks
Description: (§6) Evaluation of the herbicidal effect is shown in the following six grades, by comparing the condition of untreated control and growth inhibition (%): • 0: 0%-less than 20% • 1: 20%-less than 40% • 2: 40%-less than 60% • 3: 60%-less than 80% • 4: 80%-less than 100% • 5: 100%.
as §2
(§7) Wettable powders containing the object compounds (1) as identified in Table 1, which were formulated following Preparation Example 2, were diluted with water to the prescribed dose of the active ingredient, and uniformly sprayed onto the weeds at 1.0-2.0 leaf stage of the southern crabgrass at an application water of 15 liters per are.
as §3
(§8) Evaluation of the herbicidal effect was conducted in the similar manner to Test Example 1.

[3] = system: common lambsquaters (Chenopodium album); test: Soil treatment test for upland field (Test Example 2): common lambsquaters; details: soil treatment before germination, examined after 3 weeks
Description: as §6, §4
(§9) Wettable powders containing the object compounds (1) as identified in Table 1, which were formulated following Preparation Example 2, were diluted with adequate amount of water to secure the prescribed dose of the active ingredient, and uniformly sprayed onto the surface soil layer after the seeding and before germination of the weeds, at an application water of 15 liters per are.
as §5
(§10) Evaluations of the herbicidal effect and phytotoxicity were made in the manner similar to those in the above Test Example 1.

common purslane = test: Foliage treatment test for upland field (Test Example 3): common purslane; details: foliage treatment at 1.0-2.0 leaf stage of southern crabgrass, examined after 3 weeks
Description: as §6, §2, §7, §3, §8

[4] = system: velvetleaf (Abutilon theophrasti); test: Soil treatment test for upland field (Test Example 2): velvetleaf; details: soil treatment before germination, examined after 3 weeks
Description: as §6, §4, §9, §5, §10

[5] = system: slender amaranth (Amaranthus viridis); test: Soil treatment test for upland field (Test Example 2): slender amaranth; details: soil treatment before germination, examined after 3 weeks
Description: as §6, §4, §9, §5, §10

soybean [6] = test: Foliage treatment test for upland field (Test Example 3): phytotoxicity to soybean; details: foliage treatment at 1.0-2.0 leaf stage of southern crabgrass, examined after 3 weeks
Description: as §1, §2, §3

southern crabgrass = test: Foliage treatment test for upland field (Test Example 3): southern crabgrass; details: foliage treatment at 1.0-2.0 leaf stage of southern crabgrass, examined after 3 weeks
Description: as §6, §2, §7, §3, §8

slender amaranth = test: Foliage treatment test for upland field (Test Example 3): slender amaranth; details: foliage treatment at 1.0-2.0 leaf stage of southern crabgrass, examined after 3 weeks
Description: as §6, §2, §7, §3, §8

corn [7] = test: Soil treatment test for upland field (Test Example 2): phytotoxicity to corn; details: soil treatment before germination, examined after 3 weeks
Description: as §1, §4, §5

[8] = system: common purslane (Portulaca oleracea); test: Soil treatment test for upland field (Test Example 2): common purslane; details: soil treatment before germination, examined after 3 weeks
Description: as §6, §4, §9, §5, §10

corn [9] = test: Foliage treatment test for upland field (Test Example 3): phytotoxicity to corn; details: foliage treatment at 1.0-2.0 leaf stage of southern crabgrass, examined after 3 weeks
Description: as §1, §2, §3

[10] = system: southern crabgrass (Digitaria ciliaris); test: Soil treatment test for upland field (Test Example 2): southern crabgrass; details: soil treatment before germination, examined after 3 weeks
Description: as §6, §4, §9, §5, §10

common lambsquaters = test: Foliage treatment test for upland field (Test Example 3): common lambsquaters; details: foliage treatment at 1.0-2.0 leaf stage of southern crabgrass, examined after 3 weeks
Description: as §6, §2, §7, §3, §8

wheat [11] = test: Soil treatment test for upland field (Test Example 2): phytotoxicity to wheat; details: soil treatment before germination, examined after 3 weeks
Description: as §1, §4, §5

SMILES | Phytotoxicity wheat (wheat [1]; dose 2.5 g ai/a) | Phytotoxicity wheat (wheat [1]; dose 5 g ai/a) | Phytotoxicity soybean (soybean [2]; dose 2.5 g ai/a) | Phytotoxicity soybean (soybean [2]; dose 5 g ai/a) | Herbicidal Effect velvetleaf (velvetleaf; dose 2.5 g ai/a) | Herbicidal Effect velvetleaf (velvetleaf; dose 5 g ai/a) | Herbicidal Effect common lambsquaters ([3]; dose 2.5 g ai/a) | Herbicidal Effect common lambsquaters ([3]; dose 5 g ai/a) | Herbicidal Effect common purslane (common purslane; dose 2.5 g ai/a) | Herbicidal Effect common purslane (common purslane; dose 5 g ai/a) | Herbicidal Effect velvetleaf ([4]; dose 2.5 g ai/a) | Herbicidal Effect velvetleaf ([4]; dose 5 g ai/a) | Herbicidal Effect slender amaranth ([5]; dose 2.5 g ai/a) | Herbicidal Effect slender amaranth ([5]; dose 5 g ai/a) | Phytotoxicity soybean (soybean [6]; dose 2.5 g ai/a) | Phytotoxicity soybean (soybean [6]; dose 5 g ai/a) | Herbicidal Effect southern crabgrass (southern crabgrass; dose 2.5 g ai/a) | Herbicidal Effect southern crabgrass (southern crabgrass; dose 5 g ai/a) | Herbicidal Effect slender amaranth (slender amaranth; dose 2.5 g ai/a) | Herbicidal Effect slender amaranth (slender amaranth; dose 5 g ai/a) | further results
COCC(=Cc1cccc(C(F)(F)F)c1)c1nc2cc(OC(F)(F)F)ccc2o1 [Compound 46] | 0 | 1 | 0 | 1 | 4 (80%-less than 100%) | 5 (100%) | 5 (100%) | 5 (100%) | 5 (100%) | 5 (100%) | 4 (80%-less than 100%) | 5 (100%) | 5 (100%) | 5 (100%) | 1 | 1 | 4 (80%-less than 100%) | 5 (100%) | 5 (100%) | 5 (100%) | Phytotoxicity corn (corn [7]; dose 2.5 g ai/a): 0; Phytotoxicity corn (corn [7]; dose 5 g ai/a): 1; Herbicidal Effect common purslane ([8]; dose 2.5 g ai/a): 5 (100%); Herbicidal Effect common purslane ([8]; dose 5 g ai/a): 5 (100%); Phytotoxicity corn (corn [9]; dose 2.5 g ai/a): 0; Phytotoxicity corn (corn [9]; dose 5 g ai/a): 1; Herbicidal Effect southern crabgrass ([10]; dose 2.5 g ai/a): 4 (80%-less than 100%); Herbicidal Effect southern crabgrass ([10]; dose 5 g ai/a): 5 (100%); Herbicidal Effect Common lambsquatters (common lambsquaters; dose 2.5 g ai/a): 5 (100%); Herbicidal Effect Common lambsquatters (common lambsquaters; dose 5 g ai/a): 5 (100%); Phytotoxicity wheat (wheat [11]; dose 2.5 g ai/a): 0; Phytotoxicity wheat (wheat [11]; dose 5 g ai/a): 0
CSCC(=Cc1cccc(C(F)(F)F)c1)c1nc2cc(C(F)(F)F)ccc2o1 [Compound 82] | 0 | 0 | 0 | 0 | 2 (40%-less than 60%) | 3 (60%-less than 80%) | 5 (100%) | 5 (100%) | 5 (100%) | 5 (100%) | 2 (40%-less than 60%) | 2 (40%-less than 60%) | 5 (100%) | 5 (100%) | 1 | 1 | 4 (80%-less than 100%) | 4 (80%-less than 100%) | 5 (100%) | 5 (100%) | Phytotoxicity corn (corn [7]; dose 2.5 g ai/a): 0; Phytotoxicity corn (corn [7]; dose 5 g ai/a): 0; Herbicidal Effect common purslane ([8]; dose 2.5 g ai/a): 5 (100%); Herbicidal Effect common purslane ([8]; dose 5 g ai/a): 5 (100%); Phytotoxicity corn (corn [9]; dose 2.5 g ai/a): 0; Phytotoxicity corn (corn [9]; dose 5 g ai/a): 1; Herbicidal Effect southern crabgrass ([10]; dose 2.5 g ai/a): 3 (60%-less than 80%); Herbicidal Effect southern crabgrass ([10]; dose 5 g ai/a): 3 (60%-less than 80%); Herbicidal Effect Common lambsquatters (common lambsquaters; dose 2.5 g ai/a): 5 (100%); Herbicidal Effect Common lambsquatters (common lambsquaters; dose 5 g ai/a): 5 (100%); Phytotoxicity wheat (wheat [11]; dose 2.5 g ai/a): 0; Phytotoxicity wheat (wheat [11]; dose 5 g ai/a): 0
CCSCC(=Cc1cccc(C(F)(F)F)c1)c1nc2cc(C(F)(F)F)ccc2o1 [Compound 84] | 0 | 0 | 0 | 0 | 2 (40%-less than 60%) | 3 (60%-less than 80%) | 5 (100%) | 5 (100%) | 4 (80%-less than 100%) | 5 (100%) | 2 (40%-less than 60%) | 2 (40%-less than 60%) | 4 (80%-less than 100%) | 5 (100%) | 0 | 0 | 4 (80%-less than 100%) | 4 (80%-less than 100%) | 5 (100%) | 5 (100%) | Phytotoxicity corn (corn [7]; dose 2.5 g ai/a): 0; Phytotoxicity corn (corn [7]; dose 5 g ai/a): 0; Herbicidal Effect common purslane ([8]; dose 2.5 g ai/a): 5 (100%); Herbicidal Effect common purslane ([8]; dose 5 g ai/a): 5 (100%); Phytotoxicity corn (corn [9]; dose 2.5 g ai/a): 0; Phytotoxicity corn (corn [9]; dose 5 g ai/a): 1; Herbicidal Effect southern crabgrass ([10]; dose 2.5 g ai/a): 3 (60%-less than 80%); Herbicidal Effect southern crabgrass ([10]; dose 5 g ai/a): 3 (60%-less than 80%); Herbicidal Effect Common lambsquatters (common lambsquaters; dose 2.5 g ai/a): 4 (80%-less than 100%); Herbicidal Effect Common lambsquatters (common lambsquaters; dose 5 g ai/a): 5 (100%); Phytotoxicity wheat (wheat [11]; dose 2.5 g ai/a): 0; Phytotoxicity wheat (wheat [11]; dose 5 g ai/a): 0
